Where “and” joins values, the source holds several entries; their conditions need not be identical. Equal entries are not always repeated.
Columns and labels:
[1] = test system: human VEGF165 induced blood-retinal breakdown; assay: VEGF induced blood-retinal breakdown: rabbit retinal leakage model; format: in vivo; parameters: Geometric mean (right eye values adjusted for left eye values): unit not given here; details: for % reduction vs vehicle / Ratio vs Vehicle: Example 9, Table 4B; for Rt ratio of vitreoretinal fluorescein contents between right-induced and left eyes: Example 9; for Geometric mean (right eye values adjusted for left eye values): Example 42, Table 15B (i)
[2] = test system: VEGF165-induced proliferation of human umbilical vein endothelial cells (HUVEC); assay: Human Umbilical Cord Endothelial Cell (HUVEC) proliferation assay; format: cell-based; details: for Predicted Means for Max % Inhibition, Estimate: weighted mixed model analysis
Method: The assay measures the extent of endothelial cell proliferation induced by a defined concentration of VEGF165 and the ability of VEGF antagonists to block this effect. HUVECs were seeded at 5000 cells per well in 96-well gelatine-coated plates, leaving outer wells free of cells, and incubated for several hours to permit adherence. Test molecules were assayed at equimolar concentrations (max 3.33×10^−08M) with a 2-fold serial dilution, each in triplicate. The VEGF165 was prepared in basal medium to achieve 75 ng/ml final concentration. Medium was removed manually from the cell monolayers and 50 μl basal media was added to prevent the cells from drying out. 25 μl VEGF165-containing medium and 25 μl basal medium or test antibody-containing medium was added as appropriate. Cells were incubated for 72 hrs, after which time the total number of cells was determined using Cell Titre Glo.
The data was analysed using GraphPad Prism using a Sigmodial curve fit, variable slope cf a non-linear regression (variable slope). Individual curve fits were fitted for each molecule and at each day. Due to some poor fitting, it was decided to introduce constraints for the curve where a plateau was not observed at the lower concentration. This constraint would be equal to the mean of the points at the lowest concentration. Data was manually selected as to whether the minimum was constrained or not, and the curve fit and parameters were automatically updated based upon this criteria selection. Estimates of the curve maxima and the standard error were analysed using a weighted mixed model analysis of variance, using 1/(standard error)^2, [SE]^2, as a weighting. The analysis adjusted for variability between plates and days using random effects terms. […] The same analysis was then performed on the log 10 scale for the IC50, and the results back transformed.
The data was analysed using GraphPad Prism using a Sigmodial curve fit, variable slope cf a non-linear regression (variable slope). Individual curve fits were fitted for each molecule and at each day. Due to some poor fitting, it was decided to introduce constraints for the curve where a plateau was not observed at the lower concentration. One plate was excluded from the analysis due to poor curve fitting despite constraints. This constraint would be equal to the mean of the points at the lowest concentration. Data was manually selected as to whether the minimum was constrained or not, and the curve fit and parameters were automatically updated based upon this criteria selection. Estimates of the curve maxima and the standard error were analysed using a weighted mixed model analysis of variance, using 1/(standard error)^2, [SE]^2, as a weighting. The analysis adjusted for variability between plates and days using random effects terms. […]

VEGFR1 (Flt1) = VEGFR1 (Flt1) (Homo sapiens, UniProt P17948); details: background statement; cited from earlier work
Sequence of VEGFR1 (Flt1) (P17948 27-1338, species assumed): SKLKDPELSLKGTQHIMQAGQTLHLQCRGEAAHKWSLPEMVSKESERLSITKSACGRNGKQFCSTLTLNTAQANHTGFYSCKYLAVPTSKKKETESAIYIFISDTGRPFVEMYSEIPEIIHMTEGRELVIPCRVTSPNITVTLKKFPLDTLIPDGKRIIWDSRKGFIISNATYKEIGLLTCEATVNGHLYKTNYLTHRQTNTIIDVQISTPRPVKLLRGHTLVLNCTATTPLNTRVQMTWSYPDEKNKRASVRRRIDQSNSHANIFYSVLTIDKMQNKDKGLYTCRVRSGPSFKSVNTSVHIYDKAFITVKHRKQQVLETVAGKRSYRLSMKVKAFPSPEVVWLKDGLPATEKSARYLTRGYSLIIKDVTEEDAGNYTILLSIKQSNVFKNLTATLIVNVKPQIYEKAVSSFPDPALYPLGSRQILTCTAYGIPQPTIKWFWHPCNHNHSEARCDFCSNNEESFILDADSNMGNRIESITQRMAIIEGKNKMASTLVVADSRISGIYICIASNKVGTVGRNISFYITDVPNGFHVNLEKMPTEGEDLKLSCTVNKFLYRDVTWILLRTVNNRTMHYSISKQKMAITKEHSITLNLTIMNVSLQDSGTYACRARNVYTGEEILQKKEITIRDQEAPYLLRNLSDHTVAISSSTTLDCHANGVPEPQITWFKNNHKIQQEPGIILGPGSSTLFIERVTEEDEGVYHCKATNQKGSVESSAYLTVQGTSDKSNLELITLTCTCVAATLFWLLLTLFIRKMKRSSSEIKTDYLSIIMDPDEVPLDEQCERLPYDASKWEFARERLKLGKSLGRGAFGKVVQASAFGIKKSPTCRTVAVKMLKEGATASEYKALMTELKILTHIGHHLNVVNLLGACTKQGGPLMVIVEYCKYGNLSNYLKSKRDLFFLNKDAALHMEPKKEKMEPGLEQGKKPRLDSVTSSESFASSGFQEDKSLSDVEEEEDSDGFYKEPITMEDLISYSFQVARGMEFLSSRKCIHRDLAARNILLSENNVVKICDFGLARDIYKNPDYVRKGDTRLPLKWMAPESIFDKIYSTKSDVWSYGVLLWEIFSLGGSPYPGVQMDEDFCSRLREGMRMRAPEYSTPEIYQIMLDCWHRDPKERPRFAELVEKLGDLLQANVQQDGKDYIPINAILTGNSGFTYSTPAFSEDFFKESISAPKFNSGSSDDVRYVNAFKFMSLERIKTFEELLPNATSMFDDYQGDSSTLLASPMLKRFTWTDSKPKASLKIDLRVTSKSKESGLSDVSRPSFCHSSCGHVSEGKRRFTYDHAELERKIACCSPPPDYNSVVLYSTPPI

[3] = molecular target: T1, mVEGF R2 Fc (R&D 443-KD/CF) (mouse, UniProt P35918 20-762); assay: MSD on coated mouse VEGF164 (1ug/mL mVEGF capture), detection with sulfo-TAG anti-human IgG Fc
T1 construct: Bought control protein; not shown: Fc part of the bought fusion
T1 sequence (P35918 20-762 limits assumed): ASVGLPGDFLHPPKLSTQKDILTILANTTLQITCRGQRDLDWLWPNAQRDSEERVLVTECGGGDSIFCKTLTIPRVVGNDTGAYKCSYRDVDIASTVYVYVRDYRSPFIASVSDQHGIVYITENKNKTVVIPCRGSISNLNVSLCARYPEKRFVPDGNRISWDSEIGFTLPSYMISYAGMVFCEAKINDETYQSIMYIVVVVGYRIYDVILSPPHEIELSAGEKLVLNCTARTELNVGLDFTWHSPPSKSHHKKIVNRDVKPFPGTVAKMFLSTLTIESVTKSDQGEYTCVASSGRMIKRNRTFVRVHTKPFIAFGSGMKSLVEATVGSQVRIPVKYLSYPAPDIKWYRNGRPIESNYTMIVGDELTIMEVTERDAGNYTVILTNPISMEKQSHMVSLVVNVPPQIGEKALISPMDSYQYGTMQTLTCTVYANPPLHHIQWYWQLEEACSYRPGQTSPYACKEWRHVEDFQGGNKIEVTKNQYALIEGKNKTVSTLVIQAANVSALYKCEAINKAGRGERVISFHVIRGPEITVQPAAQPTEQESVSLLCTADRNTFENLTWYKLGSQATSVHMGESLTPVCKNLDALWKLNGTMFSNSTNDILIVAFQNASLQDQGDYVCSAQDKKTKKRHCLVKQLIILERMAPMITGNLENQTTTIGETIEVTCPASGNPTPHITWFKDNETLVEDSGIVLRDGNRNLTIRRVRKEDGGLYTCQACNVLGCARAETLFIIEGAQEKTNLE

[4] = Example 42, Table 15B (ii), 2000 μg/eye
[5] = dose H (high), VEGF induced retinal leakage

C[C@]12C=CC(=O)C=C1CC[C@H]1[C@@H]3C[C@@H](O)[C@](O)(C(=O)CO)[C@@]3(C)C[C@H](O)[C@@]12F [Kenacort, Triamcinalone]
% reduction vs vehicle ([1]; 2000 μg/eye): 85%
Ratio vs Vehicle ([1]; 2000 μg/eye): 0.1485
Rt ratio of vitreoretinal fluorescein contents between right-induced and left eyes ([1]; Kenacort 2000 μg/eye IVT Day -7): 1.15±0.61
Geometric mean (right eye values adjusted for left eye values) ([1]; 2000 μg/eye): 10205.21
% reduction [1, 4]: 80% and 79.9922%
ratio (to vehicle) [1, 4]: 0.2001

Ranibizumab [Lucentis]
Ratio vs Vehicle ([1]; dose H (high)): 0.1826
% reduction vs vehicle [1, 5]: 82%
% reduction vs vehicle ([1]; dose H (high), VEGF induced retinal leakage, listed as Ranibizumab): 82%
Ratio vs Vehicle ([1]; low dose (L)): 0.2188
% reduction vs vehicle ([1]; low dose (L), VEGF induced retinal leakage): 78%
% reduction vs vehicle ([1]; low dose (L), VEGF induced retinal leakage, listed as Ranibizumab): 78%
Rt ratio of vitreoretinal fluorescein contents between right-induced and left eyes ([1]; IVT Day -7, 500 ng rhVEGF165 Day 0, read Day 2, dose H (high)): 1.05±0.52
Rt ratio of vitreoretinal fluorescein contents between right-induced and left eyes ([1]; IVT Day -7, 500 ng rhVEGF165 Day 0, read Day 2, low dose (L)): 1.81±1.76

Bevacizumab [Avastin]
inhibit HUVEC proliferation ([2]; Example 8, VEGF165 75 ng/ml, 72 hrs, maximum extent of inhibition): ~100%
inhibition of VEGF driven HUVEC proliferation (extent) ([2]; Example 18, data not shown): ~100%
Predicted Means for Max % Inhibition, Estimate ([2]; Table 14A): 73.5423%
Predicted Means for Max % Inhibition, Estimate ([2]; Table 18A): 71.0316%
% reduction vs vehicle [1, 5]: 75%
% reduction vs vehicle ([1]; dose H (high), VEGF induced retinal leakage, listed as Bevacizumab): 75%
Geometric mean (right eye values adjusted for left eye values) ([1]; dose H, IVT Day -7): 12332.94
Geometric mean (right eye values adjusted for left eye values) ([1]; dose L): 12037.98
Geometric mean (right eye values adjusted for left eye values) ([1]; dose L/3): 14592.62
% reduction ([1]; Example 42, Table 15B (ii), dose H): 75.8207%
% reduction ([1]; Example 42, Table 15B (ii), dose L): 76.3990%
% reduction ([1]; Example 42, Table 15B (ii), dose L/3): 71.3905%
reduction of VEGF induced retinal leakage ([1]; Example 42, the three different doses (H, L, L/3)): 71.4-76.4%

VEGF
Kd (VEGFR1 (Flt1)): ~0.03 nM

B1: mouse VEGF164 (R&D 493-MV/CF) (ligand, UniProt Q00731-2 27-190, looked up)
chain: APTTEGEQKSHEVIKFMDVYQRSYCRPIETLVDIFQEYPDEIEYIFKPSCVPLMRCAGCCNDEALECVPTSESNITMQIMRIKPHQSQHIGEMSFLQHSRCECRPKKDRTKPENHCEPCSERRKHLFVQDPQTCKCSCKNTDSRCKARQLELNERTCRCDKPRR
notes: Bought reagent; also called mVEGF164; murine VEGF164
binding result [3]: binds

Source: US20170029494A1, “Antigen Binding Constructs” (Glaxo Group Limited, priority 2011, published 2017)
